ChEMBL document CHEMBL3508140 (2016)

How the values were obtained:
[1] = Plasma clearance of epirubicin following intravenous epirubicin at 60-90 mg.m-2 dose in cancer patients; assay type: ADME, organism-based; conditions: human, in vivo
[2] = AUC of epirubicin following intravenous epirubicin at 3 mg.Kg-1 dose in rabbit; assay type: ADME, organism-based, Oryctolagus cuniculus; conditions: both, New Zealand White, plasma
[3] = Half-life of terminal elimination phase of epirubicin following intravenous epirubicin at 75 mg.m-2 dose in cancer patients; assay type: ADME, organism-based; conditions: human, plasma
[4] = Half-life of epirubicin in heart following single intravenous epirubicin at 10 mg.Kg-1 dose in female mouse bearing colon tumor; assay type: ADME, organism-based; conditions: BALB/c
[5] = Half-life of terminal elimination phase of epirubicin following intravenous epirubicin at 75-90 mg.m-2 dose in cancer patients; assay type: ADME, organism-based; conditions: human, plasma
[6] = Terminal half-life of 4'-epiadriamycin following intravenous 4'-epiadriamycin at 1.27 mg.Kg-1 dose in dog; assay type: ADME, organism-based, Canis lupus familiaris; conditions: Beagle, plasma
[7] = Plasma clearance of 4'-epiadriamycin following intravenous 4'-epiadriamycin at 1.27 mg.Kg-1 dose in dog; assay type: ADME, organism-based, Canis lupus familiaris; conditions: Beagle, read-out: Clp
[8] = Urinary excretion of epirubicin following epirubicin at 75-90 mg.m-2 dose in cancer patients; assay type: ADME, organism-based; conditions: human, urine; read-out: Compound recovery
[9] = Biliary excretion of epirubicin following epirubicin at 50 mg.m-2 dose in cancer patients; assay type: ADME, organism-based; conditions: human, bile, at 50 mg/m2, read-out: Compound recovery
[10] = Terminal elimination of metabolite of epirubicin following intravenous epirubicin at 40-135 mg.m-2 dose in cancer patients; assay type: ADME, organism-based, Plasma; conditions: human, in vivo
[11] = Plasma clearance of epirubicin following intravenous epirubicin at 60 mg.m-2 dose in cancer patients; assay type: ADME, organism-based; conditions: human, in vivo
[12] = Volume of distribution of epirubicin following intravenous epirubicin at 3 mg.Kg-1 dose in rabbit; assay type: ADME, organism-based, Oryctolagus cuniculus; conditions: both, New Zealand White, plasma
[13] = Plasma clearance of epirubicin following intravenous epirubicin at 70 mg.m-2 dose in cancer patients; assay type: ADME, organism-based; conditions: human, in vivo
[14] = Detection of epirubicin in heart following single intravenous epirubicin at 10 mg.Kg-1 dose in female mouse bearing colon tumor; assay type: ADME, organism-based, BALB/c; conditions: in vivo
[15] = Initial phase half-life of epirubicin following intravenous epirubicin at 75-90 mg.m-2 dose in cancer patients; assay type: ADME, organism-based, Plasma; conditions: human, in vivo
[16] = (§1) Cumulative urinary excretion of epirubicin and its metabolites following epirubicin at 50 mg.m-2 dose in cancer patients; assay type: ADME, organism-based, Urine; conditions: human, in vivo; at 50 mg/m2
[17] = Cumulative urinary excretion of epirubicin and its metabolites following epirubicin at 60 mg.m-2 dose in cancer patients; assay type: ADME, organism-based, Urine; conditions: human, in vivo; at 60 mg/m2
[18] = Half-life of epirubicin in tumor following single intravenous epirubicin at 10 mg.Kg-1 dose in female mouse bearing colon tumor; assay type: ADME, organism-based, Neoplasm; conditions: BALB/c
[19] = Initial phase half-life of epirubicin following intravenous epirubicin at 20 mg.m-2 dose in cancer patients; assay type: ADME, organism-based, Plasma; conditions: human, in vivo
[20] = Initial phase half-life of epirubicin following intravenous epirubicin at 90-150 mg.m-2 dose in cancer patients; assay type: ADME, organism-based, Plasma; conditions: human, in vivo
[21] = Half-life of terminal elimination phase of epirubicin following intravenous epirubicin at 30-90 mg.m-2 dose in cancer patients; assay type: ADME, organism-based; conditions: human, plasma
[22] = Half-life of terminal elimination phase of epirubicin following intravenous epirubicin at 40-60 mg.m-2 dose in cancer patients; assay type: ADME, organism-based; conditions: human, plasma
[23] = Initial phase half-life of epirubicin following intravenous epirubicin at 50 mg.m-2 dose in cancer patients; assay type: ADME, organism-based, Plasma; conditions: human, in vivo
[24] = Volume of distribution of epirubicin following intravenous epirubicin at 1 mg.Kg-1 dose in rabbit; assay type: ADME, organism-based, Oryctolagus cuniculus; conditions: both, New Zealand White, plasma
[25] = Elimination of epirubicin following epirubicin at 60 mg.m-2 dose in cancer patients; assay type: ADME, organism-based, Plasma; conditions: human, in vivo, iv
[26] = Plasma clearance of epirubicin following intrahepatic epirubicin solution at 1 mg.Kg-1 dose in rabbit; assay type: ADME, organism-based, Oryctolagus cuniculus, Blood; conditions: both, New Zealand White
[27] = Half-life of terminal elimination phase of epirubicin following intravenous epirubicin at 50 mg.m-2 dose in cancer patients; assay type: ADME, organism-based; conditions: human, plasma
[28] = Mean residence time (MRT) of epirubicin following intravenous epirubicin solution at 1 mg.Kg-1 dose in rabbit; assay type: ADME, organism-based, Oryctolagus cuniculus; conditions: both, New Zealand White, blood, read-out: Mean residence time (converted)
[29] = Volume of distribution as steady state of epirubicin following intravenous epirubicin at 70 mg.m-2 dose in cancer patients; assay type: ADME, organism-based, Plasma; conditions: human, in vivo
[30] = AUC of epirubicin following intravenous epirubicin at 1 mg.Kg-1 dose in rabbit; assay type: ADME, organism-based, Oryctolagus cuniculus; conditions: both, New Zealand White, plasma
[31] = Plasma clearance of epirubicin following intravenous epirubicin at 75 mg.m-2 dose in cancer patients; assay type: ADME, organism-based; conditions: human, in vivo
[32] = Terminal half-life of epirubicinol following intravenous epirubicin at 3 mg.Kg-1 dose in rabbit; assay type: ADME, organism-based, Oryctolagus cuniculus, New Zealand White, Plasma; conditions: in vivo
[33] = Decrease in albumin due to persistent proteinuria following reference intravenous epirubicin at 1 mg.Kg-1 per week in rat; assay type: toxicity, organism-based, SD, Serum; conditions: in vivo
[34] = Mean residence time (MRT) of epirubicin following intravenous epirubicin emulsion at 1 mg.Kg-1 dose in rabbit; assay type: ADME, organism-based, Oryctolagus cuniculus; conditions: both, New Zealand White, blood, read-out: Mean residence time (converted)
[35] = Intermediate phase half-life of epirubicin following intravenous epirubicin at 20 mg.m-2 dose in cancer patients; assay type: ADME, organism-based, Plasma; conditions: human, in vivo
[36] = AUC values (0-48 h) of epirubicin in plasma following single intravenous epirubicin at 10 mg.Kg-1 dose in female mouse bearing colon tumor; assay type: ADME, organism-based, BALB/c; conditions: in vivo
[37] = Initial phase half-life of epirubicin following intravenous epirubicin at 25-35 mg.m-2 dose in cancer patients; assay type: ADME, organism-based, Plasma; conditions: human, in vivo
[38] = Plasma clearance of epirubicin following intravenous epirubicin at 40-60 mg.m-2 dose in cancer patients; assay type: ADME, organism-based; conditions: human, in vivo
[39] = Urinary excretion of epirubicin following epirubicin at 60 mg.m-2 dose in cancer patients; assay type: ADME, organism-based; conditions: human, urine, at 60 mg/m2, read-out: Compound recovery
[40] = Recovery of epirubicin following intravenous epirubicin at 1.5 mg.Kg-1 dose in man; assay type: ADME, organism-based, Plasma; conditions: human, in vivo
[41] = Renal clearance of epirubicin following epirubicin at 60 mg.m-2 dose in cancer patients; assay type: ADME, organism-based, Kidney; conditions: human, in vivo, iv, read-out: Renal clearance (converted)
[42] = as §1; assay type: ADME, organism-based, Urine; conditions: human, in vivo; at 50 mg/m2; remark: listed apart in the source
[43] = Volume of distribution at steady state following intravenous epirubicin at 150 mg.m-2 dose in patients with advanced cancer; assay type: ADME, organism-based; conditions: human, plasma, read-out: Vss
[44] = Half-life of terminal elimination phase of epirubicin following intravenous epirubicin at 20 mg.m-2 dose in cancer patients; assay type: ADME, organism-based; conditions: human, plasma
[45] = Terminal half-life of epirubicin following intrahepatic epirubicin emulsion at 1 mg.Kg-1 dose in rabbit; assay type: ADME, organism-based, Oryctolagus cuniculus; conditions: both, New Zealand White, blood
[46] = Volume of distribution of epirubicin following intrahepatic epirubicin emulsion at 1 mg.Kg-1 dose in rabbit; assay type: ADME, organism-based, Oryctolagus cuniculus; conditions: both, New Zealand White, blood
[47] = Cumulative urinary excretion of epirubicin and its metabolites following epirubicin at 75-90 mg.m-2 dose in cancer patients; assay type: ADME, organism-based, Urine; conditions: human, in vivo
[48] = Intermediate phase half-life of epirubicin following intravenous epirubicin at 70 mg.m-2 dose in cancer patients; assay type: ADME, organism-based, Plasma; conditions: human, in vivo
[49] = Volume of distribution at steady state following epirubicin at 60 mg.m-2 dose in patients with cancer; assay type: ADME, organism-based; conditions: human, plasma, read-out: Vss
[50] = Volume of distribution of epirubicin following intravenous epirubicin emulsion at 1 mg.Kg-1 dose in rabbit; assay type: ADME, organism-based, Oryctolagus cuniculus; conditions: both, New Zealand White, blood
[51] = Urinary elimination of 4'-epiadriamycin following intravenous bolus 4'-epiadriamycin at 10 mg.Kg-1 dose in rat; assay type: ADME, organism-based; conditions: SD, urine, read-out: Compound recovery

Work on COc1cccc2c1C(=O)c1c(O)c3c(c(O)c1C2=O)C[C@@](O)(C(=O)CO)C[C@@H]3O[C@H]1C[C@H](N)[C@@H](O)[C@H](C)O1.Cl [EPIRUBICIN HYDROCHLORIDE] yielded a CLp [1] of 30.5 L.h-1.m-2, an AUC [2] of 620 ng·h/mL and a half-life [3] of 44.8 h. The half-life [4] was 10.6 h, the half-life [5] was 38 h and the half-life [6] was 7.1 min. For the same compound, the clearance [7] was 589 mL/min, the dose excreted at 48 h [8] was 5.9% and the dose excreted at 96 h [9] was 21.9%. It also gave a t1/2 [10] of 18.1 h, a CLp [11] of 43.1 L.h-1.m-2 and a Vd [12] of 587 L/kg. For the same compound, the CLp [13] was 84.2 L.h-1.m-2, the Compound recovery [14] was “OUTCOME = Observed” and the t1/2 [15] was 4.8 min. The Radiolabel recovery [16] was 10.5%, the Radiolabel recovery [17] was 11.3% and the half-life [18] was 24.7 h. The t1/2 [19] was 3.4 min, the t1/2 [20] was 0.167 h and the half-life [21] was 39.4 h. For the same compound, the half-life [22] was 15.3 h, the t1/2 [23] was 3.44 min and the Vd [24] was 368 L/kg. The Elimination [25] was “OUTCOME = Observed”, the CL/F [26] was 2700 mL/min and the half-life [27] was 18.3 h. It also gave an MRT [28] of 1.26 h, a Vss [29] of 2332 L.m-2 and an AUC [30] of 420 ng·h/mL. The CLp [31] was 29 L.h-1.m-2, the t1/2 [32] was 1.66 h and the ALB_CHANGE [33] was “OUTCOME = Decreased”. The MRT [34] was 0.835 h, the t1/2 [35] was 0.89 h and the AUC [36] was 179 nmol·min/mL. The t1/2 [37] was 2.53 min, the CLp [38] was 50.1 L.h-1.m-2 and the dose excreted at 168 h [39] was 6.4%. For the same compound, the Compound recovery [40] was 46 10^-9M, the CL renal [41] was 71.7 mL/min and the Radiolabel recovery [42] was 20%. The Vd [43] was 21 L/kg, the half-life [44] was 13.9 h and the half-life [45] was 0.868 h. The Vd [46] was 137 L/kg, the Radiolabel recovery [47] was 10.7% and the t1/2 [48] was 1.25 h. For the same compound, the Vd [49] was 32 L/kg, the Vd [50] was 18.8 L/kg and the dose excreted [51] was 3.9%.
